# Experimental data: a melting point compilation (Tetko et al.; mined from patent text by program, amines drawn as free bases though some values may be those of a salt)
row,Compound,melting point
1,COC(=O)c1c(C)nc(C)c(C(=O)OCC2CCCO2)c1-c1cccc(NC(C)=O)c1 (stereo not given),196 to 198 °C
2,CC(C)N1OCCC(=Cc2cc(C(C)(C)C)c(O)c(C(C)(C)C)c2)C1=O,181 to 183 °C
3,CCn1c(Cn2ccnc2-c2cc(F)ccc2F)nc2ncccc21,214 to 216 °C
4,CC1(C)C(=O)N(CCCN(CCCN2C(=O)c3ccccc3C(C)(C)C2=O)Cc2ccccc2)C(=O)c2ccccc21,108 °C
5,COc1cc2c(cc1OC)N(C)C(=O)CN=C2c1cccc([N+](=O)[O-])c1,152 to 155 °C
6,CC(C)(C)NCC(O)COc1ccc(OCC2CC2)cc1 (stereo not given),90 to 92 °C
7,CC(OCn1cc(Cl)cnc1=O)c1ccccc1 (stereo not given),139 °C
8,Oc1ccc2cc(-c3csc(-c4ccccc4)n3)ccc2c1Br,176 to 183 °C
9,CCOC(=O)c1cnc(SC)nc1NC,91 to 93 °C
10,BrCc1ccccc1CCc1ccc(Br)cc1,63 to 75 °C
11,CC(C)C(NC(=O)OC(C)(C)C)C(=O)OCC1OC(n2cc(C=CBr)c(=O)[nH]c2=O)CC1Cl (stereo not given),75 to 76 °C
12,COC(=O)c1c(OC)c(OC)cc2[nH]c(=O)c(=O)[nH]c12,> 300 °C
13,Cn1cc([N+](=O)[O-])nc1C(=O)Cl,126 to 128 °C
14,Cc1ccc(F)cc1C(=O)Nc1ccc(C(=O)N2CCC=Cc3sccc32)c(Cl)c1,125 to 132 °C
15,CS(=O)c1ncc2cc(Cl)c(N)nc2n1 (stereo not given),260 to 262 °C
16,COc1cc(C(O)(C(F)(F)F)C(F)(F)F)cc(C)c1NS(C)(=O)=O,109 to 110 °C
17,O=C(O)C=Cc1cc(N2CCNCC2)ccc1[N+](=O)[O-],229 to 237 °C
18,CC(=C(c1ccc(N(C)C)cc1)c1ccc(N(C)C)cc1)P(C1CCCCC1)C1CCCCC1,159 to 164 °C
19,O=CC(=Cc1ccc(O)cc1)C(C=O)=Cc1ccc(O)cc1,244 to 246 °C
20,CN1C(=O)C2(COc3cc4c(cc32)OCCO4)c2c(C(=O)NC3CCCCC3)cccc21 (stereo not given),139 to 140 °C
21,CCOC(=O)c1ccc(F)cn1,61 to 63 °C
22,OC(c1cccc(-c2cc3ccccc3[nH]2)c1)c1cc2ccccc2[nH]1 (stereo not given),82 to 85 °C
23,CCc1cccc(CC(=O)O)c1OCCn1cc(C(=O)NCc2ccc(Cl)cc2Cl)c(OC(C)C)n1,125 to 126 °C
24,Cc1c(C2CCN(C)CC2)[nH]c(=O)c2ccccc12,202 to 204 °C

row,Compound,melting point
1,CC(C)(C)OC(=O)COc1cc(NC(=O)OC(C)(C)C)c([N+](=O)[O-])cc1I,103 °C
2,CC(C)(C)Sc1c(CC(C)(C)C(=O)O)n(Cc2ccc(Cl)cc2)c2ccc(OCc3ccc4cccnc4n3)cc12,122 °C
3,CCOC(=O)COc1c2c3c(ccnc3c3ccccc13)CCC2,70 °C
4,COC(=O)CCCC#Cc1cc(Cl)ccc1NS(=O)(=O)c1cccc2ccccc12,93 to 95 °C
5,COc1ccc(C(=O)Cc2cc(OC)ccc2OC)c(Br)c1,76 to 79 °C
6,CCCc1nc(-n2cccc2)c(C(=O)OCC)[nH]1,134 to 135 °C
7,CC(=O)Oc1ccc(-n2c3c(c(C(C)=O)c2-c2ccccc2)-c2ccccc2CC3)cc1C(=O)O,223 to 226 °C
8,CCC(Cn1cncn1)(C(=O)O)c1ccc(Cl)cc1Cl (stereo not given),206 to 208 °C
9,COc1cc2c(Nc3ccc(Sc4ccccn4)c(Cl)c3)c(C#N)cnc2cc1N1CCC(N2CCCC2)CC1,203 to 205 °C
10,CN(Cc1ccc(NC(=O)C2=Cc3cc(-c4ccc(O)cc4)ccc3S(=O)(=O)CC2)cc1)C1CCOCC1,232 to 234 °C
11,COc1cccc(-n2c(=O)c3c(c4cccnc42)OC(COC(C)=O)C3)c1 (stereo not given),183 to 184 °C
12,COCc1cc(C(C)(C)C)cc(COC)c1SSc1c(COC)cc(C(C)(C)C)cc1COC,94 to 95 °C
13,CCOC(=O)c1c(Nc2c(C)cccc2Cl)n[nH]c1C,158 to 159 °C
14,CCS(=O)(=O)c1cnc2c(c1)nc(CC(C)(C)C)n2CC1CCOCC1,191 °C
15,COC(=O)CCC(=O)c1ccc(-c2ccc(F)cc2)cc1,132 to 133 °C
16,CC1(c2cc(-c3cccc(CC4SC(N5CCOCC5)=NC4=O)c3)ccc2O)CCCCC1 (stereo not given),98 to 99 °C
17,CC(C)(C)c1cc(CSCCC(=O)ON(Cc2ccccc2)Cc2ccccc2)cc(C(C)(C)C)c1O,84 to 86 °C
18,COCN1C(C)=C(C(=O)O)C(c2cccc(Cl)c2Cl)C(C(=O)O)=C1C,155 to 156 °C
19,Nc1nc2c(c(Nc3cccc(Br)c3)n1)-c1ccccc1C2,233 to 236 °C
20,COc1ccc(-c2cc(=O)n(CC3CC3)nc2-c2ccc(OC)c(F)c2)cc1,132 to 133 °C
21,O=C(O)Cn1cc(Cc2cccc(OCc3ccc4ccccc4n3)c2)c2ccccc21,151 to 159 °C
22,COc1ccc(C2(O)CCC3(CC2)OCCO3)c2c1OCCO2,94 to 96 °C
23,O=[N+]([O-])c1ccc(C(c2cccs2)C(Cc2cccs2)N2CCC(Cc3ccccc3)CC2)cc1 (stereo not given),124 to 126 °C
24,COc1ccc2[nH]cc(Cc3cccnc3)c2c1,112 °C

row,Compound,melting point
1,O=C(NCc1cccs1)c1ccc(Cl)cc1,153 to 154 °C
2,Cc1noc(C)c1-c1ccnc2[nH]c(-c3cn(C)c4ccc(C(=O)O)cc34)cc12,> 305 °C
3,COc1ccc(-c2coc3c(C)c(O)ccc3c2=O)cc1OC,234 °C
4,CC(=O)NNc1c(C)cnc2c(NC(=O)c3ccccc3C(F)(F)F)cccc12,209 to 211 °C
5,COc1c(NC(=O)c2ccc(Br)cc2)ccc2cc(CO)cnc12,185 to 187 °C
6,Cc1cc(F)ccc1C(=C(C=CC=O)c1nnnn1C)c1ccc(F)cc1C,75 to 95 °C
7,O=C(NOCc1ccccc1)c1ccc(CNC(=O)c2cn3c4c(cccc24)CCC3)cc1,234 to 235 °C
8,COC(Oc1cc(Cl)c(Cl)c(Cl)c1)C(=O)O (stereo not given),101 to 104 °C
9,CCN(CC)c1ccc(N(c2ccc(N(C)C)cc2)C2(c3ccc(N(CC)CC)cc3C)OC(=O)c3ccccc32)cc1 (stereo not given),68 to 83 °C
10,CNC(=C[N+](=O)[O-])NCCCCCCCCCCCCNC(=C[N+](=O)[O-])NCCSCc1ccc(CN(C)C)o1,78 to 80 °C
11,COc1cc(C2(OC)CCOCC2)ccc1OCc1ccc2c(ccc(=O)n2C)c1,172 to 173 °C
12,CCc1ccc(-c2nc(-c3ccccc3Cl)nn2C)c(Cl)c1,75.5 to 77.5 °C
13,CC(C)(C)C(=O)c1c[nH]c2ncc(N3Cc4ccccc4C3=O)nc12,287 to 289 °C
14,Nc1nc2ccccc2c2c1ncn2CCOCCCc1cccnc1,125 to 128 °C
15,CC(C)(C)OC(=O)NCc1ccc(C(=O)Nc2ccccc2N)cc1,160 to 162 °C
16,CCOc1nn(Cc2ccccc2OCc2nc(-c3ccccc3)oc2C)cc1CCC(=O)O,127 to 128 °C
17,CCCCC(=O)N[C@H]1CC[C@H](CCN2CCC(c3cccc4c3CCO4)CC2)CC1,186 °C
18,N#CC1=CCOc2ccc(F)cc21,114 to 115 °C
19,CCCCc1nc(Cl)c(CO)n1Cc1ccc(NC(=O)[C@H](CC#N)NC(=O)OCc2ccccc2)cc1,89 to 91 °C
20,CN(C)C1(C#N)CCC(c2ccccc2)(N(C)C)CC1 (stereo not given),82 to 92 °C
21,CC(C#N)S[C@H](C)[C@](O)(Cn1cncn1)c1ccc(F)cc1F (stereo not given in full),66 to 68 °C
22,CC(C)(C)OC(=O)N[C@H]1CC[C@H](CCN2CCN(c3cccc(Cl)c3Cl)CC2)CC1,150 to 154 °C
23,O=C(NCc1ccccc1)c1ccc(F)c2c1CC(N(CCCc1c[nH]c3ccc(F)cc13)C1CCC1)CO2 (stereo not given),124 °C
24,COc1cc2ncnc(Nc3cc(Cl)c(O)c(Cl)c3)c2cc1OC,293 to 295 °C

row,Compound,melting point
1,COC(=O)c1cc(-c2ccccc2)c(=O)n2ccc3ccc(Cl)cc3c12,169 to 170 °C
2,CCNC(=O)c1cc2c(nc(C)n2C)c2c1CCC1(Cc3ccccc3C1)N2,223 to 224 °C
3,CC(=O)SC(CC(=O)c1ccc(F)cc1)C(=O)O (stereo not given),108 to 110 °C
4,CCCCOc1nc(N)c2[nH]c(=O)n(CCCCNS(=O)(=O)c3ccc(CCC(=O)O)cc3)c2n1,210 to 211 °C
5,CCSCc1ccc(CC(N)C(=O)O)cc1 (racemic),251 °C
6,CCn1nc(-c2ccc(Oc3nc4cccnc4n3C)cc2)c2nccnc21,161 to 162 °C
7,O=C1C2CC(c3ccc([N+](=O)[O-])cc3)(C2)C(=O)N1Cc1ccccc1,150 to 152 °C
8,CCCCOc1c(CNC(=O)OC(C)(C)C)n(CC(C)C)c(=O)c2ccc(-n3ccnn3)cc12,190 to 191 °C
9,CN(Cc1ccc(NC(=O)C2=Cc3cc(-c4ccc5c(c4)CCO5)ccc3S(=O)(=O)CC2)cc1)C1CCOCC1,214 to 216 °C
10,Fc1ccc2c(C3CCN(CC4=Cc5ccccc54)CC3)noc2c1,78 to 82 °C
11,O=C1CCC(c2ccc(-c3cccnc3)cc2)=NN1,225 to 226 °C
12,O=C(Nc1ccc(N2CCN(C(=O)Nc3ccc(OCCO)cc3C(F)(F)F)CC2)cc1)Nc1ccccc1F,219 to 220 °C
13,COc1ccc2c(c1)CCC1CCN=C21 (stereo not given),102 to 104 °C
14,CC#CCOc1ccc(S(=O)(=O)N(C)c2c(C(=O)OCC)cnc3c2c(C)nn3C)cc1,50 to 52 °C
15,CC(C(=O)Nc1ccc(C(=O)O)cc1)c1ccc2c(c1)C(C)(C)CCC2(C)C (stereo not given),195 to 196 °C
16,CCOC(=O)C1c2c([nH]c3ccccc23)C2=C(CCC2)C1C#N (stereo not given),192 to 195 °C
17,CCN1c2ccccc2CC(C#N)c2ccccc21 (stereo not given),127 to 129 °C
18,O=C1Cc2cc(C3=NNC(=O)SC3)ccc2N1,> 310 °C
19,CC(=O)NC[C@H]1CN(c2ccc(N3C[C@H]4CN(C(C)=O)C[C@H]4C3)c(F)c2)C(=O)O1,168 to 170 °C
20,CC(C)=NOCc1nc2c(N)nc3cc(Br)cnc3c2n1CC(C)C,176 to 178 °C
21,CC(=O)N[C@@H](CSC(C)=O)C(=O)NCCSC(=O)c1ccccc1,166 to 168 °C
22,CNC(=O)C1CCN(S(=O)(=O)c2ccc(Cl)c(COc3cccc4c(-n5ccnc5)cc(C)nc34)c2Cl)C1 (stereo not given),108 °C
23,CC1(C)N=C(c2ccccc2F)c2cc([N+](=O)[O-])cc(Cl)c2NC1=O,142 to 143 °C
